Legend:
[1] = tested on: USH2A gene (F region and R region of exon 13); assay: Indel efficiency of USH2A guide RNA expression cassettes by next generation sequencing (NGS); assay type: cell-based, human; set-up: Indel efficiency (%) Cas12f1 ver3.0 / Indel efficiency (%) Cas12f1 ver4.0 / Indel efficiency (%) Cas12f1 ver4.1: concentration or dose not given beside the values; conditions: for Indel efficiency (%) Cas12f1 ver3.0: scaffold Cas12f1 ver3.0 (SEQ ID NO: 315); for Indel efficiency (%) Cas12f1 ver3.0 / Indel efficiency (%) Cas12f1 ver4.0 / Indel efficiency (%) Cas12f1 ver4.1: expression cassette, NGS; for Indel efficiency (%) Cas12f1 ver4.0: scaffold Cas12f1 ver4.0 (SEQ ID NO: 316); for Indel efficiency (%) Cas12f1 ver4.1: scaffold Cas12f1 ver4.1 (SEQ ID NO: 317)
Source text: A nucleotide sequence encoding the guide RNA designed based on the protospacer sequence selected in Example 2.1 was constructed into an expression cassette, which was immediately transfected to confirm indel efficiency by next generation sequencing (NGS) without the T7E1 assay. Here, the guide RNA was designed to include a U-rich tail sequence (for example, 5′-U4AU6-3′) at the 3′-end.
To confirm indel efficiency of the guide sequences of Cas12f1, a cassette containing the U6 promoter, scaffold sequence, guide sequence, and U-rich tail sequence (T4AT6) was amplified by PCR and used. The process was performed as follows.
The spacer was selected from the 20mer sequence followed by TTTA or TTTG, which are PAM of Cas12f1, and spacers whose sequences end with T were excluded. In addition, to minimize off-target effects, the spacers were designed using CRISPR RGEN TOOL by classifying them with less than 2 mismatches. In addition, the reverse complement sequence comprising a DR (direct repeat) and U-rich sequence was used as an R primer.
1% agarose gel was prepared, and the size marker and PCR products were added to the gel. Electrophoresis was performed to confirm the amplified size.
After confirming the amplified size, the gel was purified according to Experimental Example 9 to quantify the PCR products.
(§1) The day before transfection, HEK293T and ARPE19-HPV cells (80% confluency) cultured in 100 mm dishes were treated with trypsin to detach from the bottom of the dish. The detached cells were placed in 50 ml of pre-warmed medium (see Experimental Example 15 for its composition) and slowly dissolved with a pipette. 24-well plates were prepared according to the number of samples and repetitions, and 500 μl of cell suspension medium was added to each well (1/100 dilution). Then, incubation was performed overnight in a CO2 incubator at 37° C. until transfection.
(§2) The next day, when the cell confluency reached approximately 70% to 80%, 200 μl of the 500 μl medium per well was removed and the plates were placed in the incubator. 1.5 ml tubes were prepared according to the number of samples, and 200 μl of Opti-MEM was added to each tube. 1.5 μg of Cas12f1 DNA and 0.5 μg of gRNA (or a vector containing nucleic acids encoding Cas12f1 DNA and two gRNAs) were added to the tube containing Opti-MEM, and vortexed for 5 seconds (nucleic acid mixture). Then, the nucleic acid mixture and FuGENE HD were added at a ratio of 1:3, and reaction was allowed to occur at room temperature for 20 minutes (that is, in a case where the nucleic acid mixture was 2 μg, 6 μl of FuGENE HD was administered). The 24-well plate was taken out from the incubator, and 200 μl of the solution containing the nucleic acid mixture and FuGENE HD was gently added along the well wall. After shaking the plate sufficiently in an S shape, it was incubated in a CO2 incubator at 37° C. for 72 hours. After 72 hours, the cells were harvested and gDNA was extracted therefrom according to Experimental Example 8.
(§3) NGS analysis to confirm indel efficiency for the target was performed over a total of three PCR rounds.
The conditions for conducting the first PCR for each region are disclosed in Tables 20 to 29 below.

USH2A gene = assay: Indel efficiency depending on length of the guide sequence; assay type: cell-based, human; conditions: highest value by guide length: F16 22mer, FA12 20mer, R19 24mer, R40 20mer; ver4.1 scaffold for F16, FA12, ver4.0 for R19, R40
Source text: Each guide sequence (F16, FA12, R19, R40) selected through Examples 2 and 3 was modified to have a guide sequence of 19- to 25-mer length based on the PAM adjacent to the protospacer sequence, and vectors expressing the same were produced, respectively, to compare the indel efficiency depending on a length of the guide sequence. As for the scaffold sequence, Cas12f1 ver4.1 was used for F16 and FA12, and Cas12f1 ver4.0 was used for R19 and R40, as selected in Example 2.2.
as §1, §2, §3

Molecule | Indel efficiency (%) Cas12f1 ver3.0 [1] | Indel efficiency (%) Cas12f1 ver4.0 [1] | Indel efficiency (%) Cas12f1 ver4.1 [1] | other results
AAUAUGCCAUACAUAUUCC (expressed or natural sequence) [GUIDE-USH2A-FA20] | 2.78% | 0.58% | 1.03% | –
ACAGUGAUGAAUGACUCACC (expressed or natural sequence) [GUIDE-USH2A-FA10] | 4.41% | 1.52% | 1.89% | –
ACUGUGUAGGAGACAAAGGA (expressed or natural sequence) [GUIDE-USH2A-R36] | – | 3.06% | – | –
AGAGUAAGAUUGGCCCCCUA (expressed or natural sequence) [GUIDE-USH2A-F05] | 0.64% | 1.48% | 4.83% | –
AUUAUACCUUCGUGAAGCUG (expressed or natural sequence) [GUIDE-USH2A-F17] | 0.02% | 0.02% | 0.18% | –
CUUAGAAAGAAGGAUGUAUA (expressed or natural sequence) [GUIDE-USH2A-R40] | – | 21.35% | 8.07% | indel efficiency (USH2A gene): 73.99%
CUUGCCAGAGAAGGAGUAGA (expressed or natural sequence) [GUIDE-USH2A-R19] | 26.08% | 27.24% | 9.48% | –
CUUGCCAGAGAAGGAGUAGAACAA (expressed or natural sequence) [GUIDE-USH2A-R19-24 mer] | – | – | – | indel efficiency (USH2A gene): 83%
GCAUUGGUCAGUGUGUAAGA (expressed or natural sequence) [GUIDE-USH2A-R22] | 6.32% | 16.03% | 15.79% | –
GGGUGAGAACAUUUAAGAUC (expressed or natural sequence) [GUIDE-USH2A-F15] | 0.55% | – | – | –
UAAUGUGUACAUAUAUCAAA (expressed or natural sequence) [GUIDE-USH2A-F16] | 4.19% | 5.87% | 10.78% | –
UAAUGUGUACAUAUAUCAAAAC (expressed or natural sequence) [GUIDE-USH2A-F16-22 mer] | – | – | – | indel efficiency (USH2A gene): 73%
UAAUUCUACCACCAGCCACA (expressed or natural sequence) [GUIDE-USH2A-R26] | – | 6.41% | – | –
UAGACCCAUAUAACUCAGAG (expressed or natural sequence) [GUIDE-USH2A-R18] | 0.46% | – | – | –
UAUAGAAAUACCUAGAAUUG (expressed or natural sequence) [GUIDE-USH2A-R10] | 1.65% | 1.20% | – | –
UCCAUAUAUAUACAUAUAUA (expressed or natural sequence) [GUIDE-USH2A-FA12] | 4.61% | – | 1.29% | indel efficiency (USH2A gene): 72.19%
UGUCUCGUCUAUCUUGAAUG (expressed or natural sequence) [GUIDE-USH2A-F02] | 1% | 0.23% | 0.03% | –
UGUUCGUAUCAUCUGCAGUA (expressed or natural sequence) [GUIDE-USH2A-F03] | 4.88% | 5.89% | 9.89% | –
UUUCUUUGCCUUGUAAUACC (expressed or natural sequence) [GUIDE-USH2A-F24] | 0.04% | 0.19% | – | –
MS2/MS3/MS4/MS5: engineered sgRNA, SEQ ID NO: 317 (nucleic acid, Engineered sgRNA with modification of MS2/MS3/MS4/MS5; misc_feature 99..118 n is a, c, g or u) guide: ACCGCUUCACUUAGAGUGAAGGUGGGCUGCUUGCAUCAGCCUAAUGUCGAGAAGUGCUUUCUUCGGAAAGUAACCCUCGAAACAAAGAAAGGAAUGCAACNNNNNNNNNNNNNNNNNNNNUUUUAUUUUUU | – | – | – | indel efficiency, scaffold versions compared ([1]; target sequences located in the F region): higher indel efficiency than ver4.0
MS2/MS3/MS4: engineered sgRNA, SEQ ID NO: 316 (nucleic acid, Engineered sgRNA with modification of MS2/MS3/MS4; misc_feature 128..147 n is a, c, g or u) guide: ACCGCUUCACCAAAAGCUGUCCCUUAGGGGAUUAGAACUUGAGUGAAGGUGGGCUGCUUGCAUCAGCCUAAUGUCGAGAAGUGCUUUCUUCGGAAAGUAACCCUCGAAACAAAGAAAGGAAUGCAACNNNNNNNNNNNNNNNNNNNNUUUUAUUUUUU | – | – | – | indel efficiency of cassette compared with Cas12f1 ver3.0 cassette ([1]; USH2A F and R region guide sequences): improved in most samples; indel efficiency, scaffold versions compared ([1]; target sequences located in the R region): higher indel efficiency than ver4.1
